Results as given in US11517617B2, “Methods and compositions for preventing influenza infection” (THE UNIVERSITY OF MELBOURNE, priority 2017, dated 2022).
No end group written: not given here.

What was measured:
[1] = test system: memory CD8^+ T cells within PBMCs; type: cell-based, human
CD8^+ T cells = type: cell-based, human

Sequence | cross-reactivity of CD8^+ T cells after in vitro expansion with the peptide [1] | additional low avidity CD8^+ T cells detected by Q115E staining (CD8^+ T cells) | recognition of IBV-derived variant by IAV-expanded CD8^+ T cells [1]
VSDGGPNLY (Influenza A virus) [PB1591-599] | recognizing both IAV- and IBV-derived peptides | – | –
GILGFVFVL [M158-66, GILGFVFVL, reference compound] | – | could be detected | –
VADGGPNIY (Influenza B virus) [BPB1590-598, IBV variant of PB1591-599] | could not expand CD8^+ T cells | – | to a lesser extent
